Laboratory results reported in US9187771B2, “Phenylpyruvate reductase and method for manufacturing optically-active phenyllactic acid and 4-hydroxyl-phenyllactic acid using same enzyme” (Asahi Kasei Chemicals Corporation, priority 2011, dated 2015).
Read-outs that look alike come from different tables or passages of the source.

Key:
[1] = tested on: PPR (phenylpyruvate reductase) from Wickerhamia fluorescens TK1; test: PPR activity measurement with purified PPR enzyme (NADPH decrease at 340 nm); assay type: biochemical; conditions: for reverse reaction of the PPR enzyme: combination of D-3-phenyllactate, L-3-phenyllactate, NAD+ and NADP+ as substrate; for reduction of substrate by the PPR enzyme: NADPH as coenzyme; for effect of metal ion on PPR activity: final concentration 1 mM
rPPR (recombinant PPR) = assay type: biochemical, Wickerhamia fluorescens TK1; conditions: variable substrate; fixed substrate NADPH
[2] = tested on: PPR activity of W. fluorescens TK1 strain; assay type: cell-based, Wickerhamia fluorescens TK1
pprA gene = test: Real-time PCR of pprA transcript; conditions: 5 mM phenylalanine, culture 8 hours
[3] = tested on: W. fluorescens TK1 strain; conditions: 5.0 mM added to MM culture medium, aerobic shake culture
[4] = final concentration of compound 1 mM, None = 100
[5] = variable coenzyme, fixed substrate Phenylpyruvate

Compound: O=C(O)C(O)Cc1ccccc1 (stereo in doubt) [D-3-phenyllactate]
- reverse reaction of the PPR enzyme [1]: failure of an enzyme reaction to arise

Compound: O=C(O)C(O)Cc1ccccc1 (stereo in doubt) [L-3-phenyllactate]
- reverse reaction of the PPR enzyme [1]: failure of an enzyme reaction to arise

Compound: OCCS [2-Mercaptoethanol]
- Relative activity [1]: 64%

Compound: O=C(O)C(=O)Cc1ccc(O)cc1 [4-hydroxyphenylpyruvate]
- reduction of substrate by the PPR enzyme [1]: reduced

Compound: [Ca+2].[Cl-].[Cl-] [CaCl2]
- Relative activity [1, 4]: 90%

Compound: [Cl-].[Cl-].[Co+2] [CoCl2]
- Relative activity [1]: 61%

Compound: O=S(=O)([O-])[O-].[Cu+2] [CuSO4]
- effect of metal ion on PPR activity [1]: inhibit PPR activity
- Relative activity [1, 4]: 0%

Compound: O=C(O)CN(CCN(CC(=O)O)CC(=O)O)CC(=O)O [EDTA, ethylenediaminetetraacetate]
- Relative activity [1, 4]: 84%

Compound: [Cl][Fe][Cl] [FeCl2]
- effect of metal ion on PPR activity [1]: inhibit PPR activity
- Relative activity [1, 4]: 0%

Compound: O=CC(=O)O [Glyoxylate]
- reduction of substrate by the PPR enzyme [1]: reduced
- kcat ([1]; variable substrate, fixed substrate NADPH): 18.9 ± 3.4 s⁻¹
- Km ([1]; variable substrate, fixed substrate NADPH, pH 6.5, 25° C.): 18.9 ± 5.8 mM
- Km (rPPR (recombinant PPR)): 25.2 ± 3.1 mM
- kcat (rPPR (recombinant PPR)): 10.4 ± 0.8 s⁻¹

Compound: [Cl][Hg][Cl] [HgCl2]
- effect of metal ion on PPR activity [1]: inhibit PPR activity
- Relative activity [1, 4]: 0%

Compound: O=C(O)C(=O)CO [Hydroxypyruvate]
- kcat [1]: 9.14 ± 0.70 s⁻¹
- reduction of substrate by the PPR enzyme [1]: reduced
- Km ([1]; pH 6.5): 3.46 ± 0.83 mM
- Km (rPPR (recombinant PPR)): 6.99 ± 2.74 mM
- kcat (rPPR (recombinant PPR)): 6.63 ± 1.04 s⁻¹

Compound: N[C@@H](Cc1ccccc1)C(=O)O [L-phenylalanine]
- PPR activity compared with culture in the GPAMM culture medium (phenylpyruvate added) ([2]; 10 hours at 30° C.): 3.0 times
- PPR activity compared with culture in the MM culture medium ([2]; 10 hours at 30° C.): 3.6 fold
- PPR activity of the cell free extract ([2]; cells cultured 10 hours at 30° C. in medium with 5 mM L-phenylalanine): 0.22 µmol/min/mg
- transcription level of the pprA gene compared with GPAMM culture medium (pprA gene): 18 fold
- transcription level of the pprA gene compared with MM culture medium (pprA gene): 40 fold
- D-3-phenyllactate production relative to when none was added [3]: 57.5 fold
- quantity of cells relative to when none was added [3]: 5.1 fold
- D-3-phenyllactate production relative to when none was added ([3]; listed as phenylalanine): up to 58 fold

Compound: O=S(=O)([O-])[O-].[Mg+2] [MgSO4]
- Relative activity [1, 4]: 92%

Compound: [Cl][Mn][Cl] [MnCl2]
- Relative activity [1, 4]: 103%

Compound: [Na+].[Na+].[O]=[Mo](=[O])([O-])[O-] [Na2MoO4]
- Relative activity [1, 4]: 89%

Compound: [Na+].[Na+].[O]=[W](=[O])([O-])[O-] [Na2WO4]
- effect of metal ion on PPR activity [1]: inhibit PPR activity
- Relative activity [1, 4]: 0%

Compound: [Cl][Ni][Cl] [NiCl2]
- Relative activity [1, 4]: 63%

Compound: O=C(O)C(=O)Cc1ccccc1 [Phenylpyruvate, phenylpyruvate]
- D-3-phenyllactate production relative to when none was added [3]: 8.9 fold
- quantity of cells relative to when none was added [3]: 1.5 fold

Compound: CCCCCCCC/C=C\CCCCCCCC(=O)OCCOCC(OCCO)C1OCC(OCCO)C1OCCO (stereo not drawn) [Tween 80]
- Relative activity ([1]; final concentration 0.5%, None = 100): 52%

Compound: O=S(=O)([O-])[O-].[Zn+2] [ZnSO4]
- effect of metal ion on PPR activity [1]: inhibit PPR activity
- Relative activity [1, 4]: 9%

Compound: NADH
- kcat/Km with NADH relative to that with NADPH as coenzyme ([1]; fixed substrate phenylpyruvate): 1/31
- Km [1, 5]: 0.1 ± 0.04 mM
- kcat [1, 5]: 31.4 ± 7.1 s⁻¹

Compound: NADPH
- Km [1, 5]: 0.01 mM
- kcat [1, 5]: 121 ± 2 s⁻¹

Compound: TritonX-100
- Relative activity [1]: 82%
